Publication PMC10535864, “Novel Aminopyrimidine-2,4-diones, 2-Thiopyrimidine-4-ones, and 6-Arylpteridines as Dual-Target Inhibitors of BRD4/PLK1: Design, Synthesis, Cytotoxicity, and Computational Studies” (Pharmaceuticals, 2023)

Key:
[1] = system: MDA-MB-231 breast cancer cells; assay: MTT cytotoxicity assay, MDA-MB-231; format: cell-based; conditions: MDA-MB-231, MTT; for IC50 / viability at 0.312 µM / viability at 0.625 µM / viability at 1.25 µM / viability at 2.5 µM / viability at 5 µM / viability at 10 µM: Homo sapiens; for IC50: mean of three independent experiments ± SD, read-out: IC50 Value MDA-MB-231
Experimental: (§1) All newly synthetic compounds were tested for cytotoxicity using a six-dose MTT colorimetric assay on three cancer cell lines; namely, breast cancer cells (MDA-MB-231), colorectal adenocarcinoma cells (HT-29) and renal cancer cells (U-937). […] However, renal cancer cells (U-937) were discovered to be the least sensitive.
(§2) Using a six-dose MTT colorimetric assay, all new synthetic compounds were tested for cytotoxicity against three cancer cell lines: MDA-MB-231 breast cancer cells, HT-29 colorectal adenocarcinoma cells, and U-937 renal cancer cells. […] These cell lines were supplied by ATCC (American Type Culture Collection) via the Holding company for biological products and vaccines (VACSERA, Cairo, Egypt). The reference control used was Methotrexate. Detailed descriptions of the MTT colorimetric assay’s protocol can be found in the Supplementary file.
(§3) 1.1.In-vitro cytotoxicity screening
(§4) Using a six-dose MTT colorimetric assay, allnew synthetic compounds were tested for cytotoxicity against three cancer cell lines: MDA-MB-231 breast cancer cells,HT-29 colorectal adenocarcinoma cells, and U-937 renal […]
(§5) The cell lines were supplied by ATCC (American Type Culture Collection). The reference control used was Methotrexate. The cytotoxic activities of the examined compounds were quantified by inoculating a 96-well tissue culture plate with 1 X 10^5 cells / mL (100 uL/well) and incubating it at 37°C for 24 hours to develop a complete monolayer sheet. After forming a confluent sheet of cells, the growth medium was decanted from 96-well microtiter plates, and the cell monolayer was washed twice with wash media. Two-fold dilutions of tested samples were made in RPMI medium with 2% serum (maintenance medium), and 0.1 mL of each dilution was tested in different wells, with three wells serving as controls and receiving only maintenance medium. Following that, the plate was incubated at 37°C and examined. Cells were investigated for any physical signs of toxicity, such as partial or complete monolayer loss, rounding, shrinkage, or cell granulation. MTT solution was prepared (5mg/ml in PBS) (BIO BASIC CANADA INC), and 20 uL MTT solution was added to each well. After 5 minutes on a shaking table at150 rpm to thoroughly mix the MTT into the media, it was incubated (37°C, 5% CO2) for 4 hours to allow the MTT to be metabolized. Formazan (MTT metabolic product) was resuspended in 200 uL DMSO and shaken at 150 rpm for 5 minutes to thoroughly mix the formazan into the solvent. The optical density was measured at 560 nm, and the background was subtracted at 620 nm. Finally, the IC50 of the test compound in comparison to the reference was calculated using the GraphPad Prism software. […]

[2] = system: HT-29 colorectal adenocarcinoma cells; assay: MTT cytotoxicity assay, HT-29; format: cell-based; conditions: MTT; for Toxicity % / viability at 0.312 µM / viability at 0.625 µM / viability at 1.25 µM / viability at 2.5 µM / viability at 5 µM / viability at 10 µM: HT29; for viability at 0.312 µM / viability at 0.625 µM / viability at 1.25 µM / viability at 2.5 µM / viability at 5 µM / viability at 10 µM / IC50: Homo sapiens, HT-29; for IC50: mean of three independent experiments ± SD, read-out: IC50 Value HT-29
Experimental: as §1, §2, §3, §4, §5

[3] = MTT cytotoxicity assay, U-937; format: cell-based; conditions: Homo sapiens, U-937, U937, MTT;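 note: Six-dose MTT colorimetric assay on cell monolayers, formazan absorbance read at 560 nm with 620 nm background removed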
Experimental: (§6) Using a six-dose MTT colorimetric assay [44, 66], all new synthetic compounds were tested for cytotoxicity against three cancer cell lines: MDA-MB-231 breast cancer cells, HT-29 colorectal adenocarcinoma cells, and U-937 renal cancer cells. […] These cell lines were supplied by ATCC (American Type Culture Collection) via the Holding company for biological products and vaccines (VACSERA, Cairo, Egypt). The reference control used was Methotrexate.
(§7) Using a six-dose MTT colorimetric assay [44, 66], allnew synthetic compounds were tested for cytotoxicity against three cancer cell lines: MDA-MB-231 breast cancer cells,HT-29 colorectal adenocarcinoma cells, and U-937 renal
(§8) The cell lines were supplied by ATCC (American Type Culture Collection). The reference control used was Methotrexate. The cytotoxic activities of the examined compounds were quantified by inoculating a 96-well tissue culture plate with 1 X 10^5 cells / mL (100 uL/well) and incubating it at 37°C for 24 hours to develop a complete monolayer sheet. After forming a confluent sheet of cells, the growth medium was decanted from 96-well microtiter plates, and the cell monolayer was washed twice with wash media. Two-fold dilutions of tested samples were made in RPMI medium with 2% serum (maintenance medium), and 0.1 mL of each dilution was tested in different wells, with three wells serving as controls and receiving only maintenance medium. Following that, the plate was incubated at 37°C and examined. Cells were investigated for any physical signs of toxicity, such as partial or complete monolayer loss, rounding, shrinkage, or cell granulation. MTT solution was prepared (5mg/ml in PBS) (BIO BASIC CANADA INC), and 20 uL MTT solution was added to each well. After 5 minutes on a shaking table at150 rpm to thoroughly mix the MTT into the media, it was incubated (37C, 5% CO2) for 4 hours to allow the MTT to be metabolized. Formazan (MTT metabolic product) was resuspended in 200 uL DMSO and shaken at 150 rpm for 5 minutes to thoroughly mix the formazan into the solvent. The optical density was measured at 560 nm, and the background was subtracted at 620 nm. Finally, the IC50 of the test compound in comparison to the reference was calculated using the GraphPad Prism software.

U-937 renal cancer cells = assay: MTT cytotoxicity assay, U-937; format: cell-based; conditions: MTT; for IC50: Homo sapiens, U-937, mean of three independent experiments ± SD, read-out: IC50 Value U-937; for Toxicity %: U937;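 for all read-outs here: Six-dose MTT colorimetric assay on cell monolayers, formazan absorbance read at 560 nm with 620 nm background removed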
Experimental: as §6, §7, §8

BRD4 (BD2) = target: T1, BRD4 (BD2) (Homo sapiens, UniProt O60885); assay: BRD4 inhibitory activity assay (AlphaLISA Bromodomain Assay); format: binding; conditions: mean of three independent experiments; read-out: BRD4 IC50 ± SD;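 note: in vitro inhibition of recombinant BRD4 BD2 bromodomain binding to a BET bromodomain ligand, read by AlphaLISA proximity signal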
T1 construct: BRD4 (BD2) should be thawed on ice; purchased
Experimental: The BRD4 and PLK1 inhibitory assays were carried out in vitro in accordance with the manufacturer’s instructions; BRD4 was assessed using AlphaLISA Bromodomain Assay Protocol [67], and PLK1 kinase was tested using the ADP-Glo™ Kinase Assay Protocol [68], as detailed in the Supplementary file.
The BRD4 and PLK1 inhibitory assays were carried out in vitro in accordance with the manufacturer's instructions; BRD4 was assessed using AlphaLISA Bromodomain Assay Protocol [67], and PLK1 kinase was tested using the ADP-Glo™ Kinase Assay Protocol [68],
The master mixture was prepared as follows: N wells × (2.5 µL 3x BRD Homogeneous Assay Buffer 1 + 1 µL BET Bromodomain Ligand + 1.5 µL H2O). BRD4 (BD2) should be thawed on ice. Simply, the protein-containing tube was spined to recover the full content of the tube after the firstthaw. Both proteins should be aliquoted into single-use aliquots. Immediately, any remaining undiluted protein should be stored in aliquots at -80°C. BRD4 (BD2) was diluted in 1x BRD Homogeneous Assay Buffer 1 at 4 ng/µL. The diluted proteins were kept on ice until they were used. 5 µl of the master mixture is added to each well designated for the “Positive Control”, “Test Inhibitor”, and “Blank”. For the “Substrate Control”, 2.5 µL 3x BRD Homogeneous Assay Buffer 1 + 1 µL Non-acetylated Ligand 1 + 1.5 µL H2O is added. Each “Test Inhibitor” well received 2.5 µL of inhibitor solution, while the “Positive
Control”, “Substrate Control”, and “Blank” wells received 2.5 µL of the same solution without inhibitor (inhibitor buffer). Then, the “Blank” well is filled with 2.5 µL of 1x BRD Homogeneous Assay Buffer 1. After that, GSH
10 µL per well is added, the plate isshaken, and itis incubated at room temperature for 30 minutes. Streptavidin-
10 µL is added per well and incubated at room temperature for further 15 – 30 minutes [67]. The Alpha counts were read using the EnVision® multimode plate reader with the standard Alpha detection settings.

human recombinant PLK1 = human recombinant PLK1 (Homo sapiens, UniProt P53350); assay: PLK1 inhibitory activity assay (ADP-Glo Kinase Assay); format: biochemical; conditions: mean of three independent experiments; read-out: PLK1 IC50 ± SD
Experimental: The BRD4 and PLK1 inhibitory assays were carried out in vitro in accordance with the manufacturer’s instructions; BRD4 was assessed using AlphaLISA Bromodomain Assay Protocol, and PLK1 kinase was tested using the ADP-Glo™ Kinase Assay Protocol, as detailed in the Supplementary file. […]
1.2.2. PLK1 inhibitory activity assay
The kinase reaction was performed with active human recombinant PLK1 and combined with the substrate dephosphorylated casein (positive control) using 1 X reaction buffer (40 mM Tris-HCl pH 7.4, 20 mM MgCl2, 0.1 mg/mL BSA, 1 mM DTT) and 20 μM ATP. The reaction was incubated at30°C for 45 minutes. The amount of ATP transferred was calculated using […] reagent from Promega according to the manufacturer’s instruction.
A plate-reading luminometer isused to measure the luminescence. […]

human recombinant PLK1, sequence (P53350 whole entry): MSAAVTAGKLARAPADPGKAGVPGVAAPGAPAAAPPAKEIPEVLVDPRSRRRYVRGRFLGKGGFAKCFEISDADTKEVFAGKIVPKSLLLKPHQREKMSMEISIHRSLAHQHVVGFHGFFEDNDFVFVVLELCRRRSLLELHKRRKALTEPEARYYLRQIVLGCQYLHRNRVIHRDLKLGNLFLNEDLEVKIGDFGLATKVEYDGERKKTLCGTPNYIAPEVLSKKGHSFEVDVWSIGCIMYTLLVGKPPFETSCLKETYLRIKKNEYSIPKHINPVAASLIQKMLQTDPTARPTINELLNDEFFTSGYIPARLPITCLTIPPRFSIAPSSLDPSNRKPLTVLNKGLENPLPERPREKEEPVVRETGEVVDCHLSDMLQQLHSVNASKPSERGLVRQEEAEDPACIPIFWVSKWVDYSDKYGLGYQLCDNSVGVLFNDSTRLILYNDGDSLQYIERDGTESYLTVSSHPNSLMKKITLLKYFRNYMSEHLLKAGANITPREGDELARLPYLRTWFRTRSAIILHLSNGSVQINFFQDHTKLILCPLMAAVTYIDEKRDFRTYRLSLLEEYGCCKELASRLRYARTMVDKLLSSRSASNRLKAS

Structure (SMILES): COc1ccc(-c2cnc3c(n2)c(=O)[nH]c(=O)n3Cc2ccccc2)cc1 [Compound 9, 1-Benzyl-6-(4-methoxyphenyl)pteridine-2,4(1H,3H)-dione]
- IC50 [1]: 2.07 ± 0.03 µM
- viability at 0.312 µM ([1]; 0.312 uM): 99.7%
- viability at 0.625 µM ([1]; 0.625 uM): 99.2%
- viability at 1.25 µM ([1]; 1.25 uM): 86.2%
- viability at 2.5 µM ([1]; 2.5 uM): 33%
- viability at 5 µM ([1]; 5 uM): 13.5%
- viability at 10 µM ([1]; 10 uM): 5.45%
- Toxicity % ([1]; 0.312 uM): 0.266%
- Toxicity % ([1]; 0.625 uM): 0.7979%
- Toxicity % ([1]; 1.25 uM): 13.79%
- Toxicity % ([1]; 2.5 uM): 66.98%
- Toxicity % ([1]; 5 uM): 86.48%
- Toxicity % ([1]; 10 uM): 94.55%
- Toxicity % ([2]; 0.312 uM): 0.2584%
- Toxicity % ([2]; 0.625 uM): 0.08613%
- Toxicity % ([2]; 1.25 uM): 0.08613%
- Toxicity % ([2]; 2.5 uM): 12.36%
- Toxicity % ([2]; 5 uM): 68.22%
- Toxicity % ([2]; 10 uM): 88.67%
- viability at 0.312 µM ([2]; 0.312 uM): 99.7%
- viability at 0.625 µM ([2]; 0.625 uM): 99.9%
- viability at 1.25 µM ([2]; 1.25 uM): 99.9%
- viability at 2.5 µM ([2]; 2.5 uM): 87.6%
- viability at 5 µM ([2]; 5 uM): 31.8%
- viability at 10 µM ([2]; 10 uM): 11.3%
- IC50 [2]: 4.11 ± 0.05 µM
- viability at 0.312 µM [3]: 99.8%
- viability at 0.625 µM [3]: 100%
- viability at 1.25 µM [3]: 98.6%
- viability at 2.5 µM [3]: 77%
- viability at 5 µM [3]: 42%
- viability at 10 µM [3]: 19.3%
- IC50 (U-937 renal cancer cells): 4.42 ± 0.18 µM
- Toxicity % (U-937 renal cancer cells; 0.312 uM): 0.2179%
- Toxicity % (U-937 renal cancer cells; 0.625 uM): 0%
- Toxicity % (U-937 renal cancer cells; 1.25 uM): 1.416%
- Toxicity % (U-937 renal cancer cells; 2.5 uM): 23.04%
- Toxicity % (U-937 renal cancer cells; 5 uM): 58.01%
- Toxicity % (U-937 renal cancer cells; 10 uM): 80.66%
- IC50 (BRD4 (BD2)): 0.179 ± 0.008 µM
- IC50 (human recombinant PLK1): 0.041 ± 0.001 µM
- melting point: > 300 °C

Structure (SMILES): Cn1c(=S)[nH]c(=O)c2nc(-c3ccccc3)c(-c3ccccc3)nc21 [Compound 10, 1-Methyl-6,7-diphenyl-2-thioxo-2,3-dihydropteridin-4(1H)-one]
- IC50 [1]: 3.4 ± 0.02 µM
- viability at 0.312 µM ([1]; 0.312 uM): 100%
- viability at 0.625 µM ([1]; 0.625 uM): 100%
- viability at 1.25 µM ([1]; 1.25 uM): 98.8%
- viability at 2.5 µM ([1]; 2.5 uM): 54.3%
- viability at 5 µM ([1]; 5 uM): 26.3%
- viability at 10 µM ([1]; 10 uM): 7.93%
- Toxicity % ([1]; 0.312 uM): 0%
- Toxicity % ([1]; 0.625 uM): 0%
- Toxicity % ([1]; 1.25 uM): 1.197%
- Toxicity % ([1]; 2.5 uM): 45.66%
- Toxicity % ([1]; 5 uM): 73.67%
- Toxicity % ([1]; 10 uM): 92.07%
- Toxicity % ([2]; 0.312 uM): 0%
- Toxicity % ([2]; 0.625 uM): 0%
- Toxicity % ([2]; 1.25 uM): 2.239%
- Toxicity % ([2]; 2.5 uM): 18.99%
- Toxicity % ([2]; 5 uM): 41.09%
- Toxicity % ([2]; 10 uM): 96.3%
- viability at 0.312 µM ([2]; 0.312 uM): 100%
- viability at 0.625 µM ([2]; 0.625 uM): 100%
- viability at 1.25 µM ([2]; 1.25 uM): 97.8%
- viability at 2.5 µM ([2]; 2.5 uM): 81%
- viability at 5 µM ([2]; 5 uM): 58.9%
- viability at 10 µM ([2]; 10 uM): 3.7%
- IC50 [2]: 5.63 ± 0.13 µM
- viability at 0.312 µM [3]: 99.5%
- viability at 0.625 µM [3]: 99.8%
- viability at 1.25 µM [3]: 99.9%
- viability at 2.5 µM [3]: 95.8%
- viability at 5 µM [3]: 85%
- viability at 10 µM [3]: 34.9%
- IC50 (U-937 renal cancer cells): 8.37 ± 0.23 µM
- Toxicity % (U-937 renal cancer cells; 0.312 uM): 0.5447%
- Toxicity % (U-937 renal cancer cells; 0.625 uM): 0.1634%
- Toxicity % (U-937 renal cancer cells; 1.25 uM): 0.05447%
- Toxicity % (U-937 renal cancer cells; 2.5 uM): 4.248%
- Toxicity % (U-937 renal cancer cells; 5 uM): 15.03%
- Toxicity % (U-937 renal cancer cells; 10 uM): 65.14%
- melting point: 287 °C
